The subject of experiment [1] is A875 PDPN overexpression cells. Briefly: Wound healing, PDPN-overexpressing A875 cells. The class given is cell-based. The note with it: A875 with PDPN overexpression. On the procedure:
(§1) A375 GFP, A875 GFP, A375 PDPN^−/−, and A875 PDPN^+/+ cells were all seeded in 12-well plates at a density of 5 × 10^5 cells/well. When the cells reached 100% confluence the next day, the straight wound was scraped in each cultured well with a 20 µL pipette tip. Then the cells were washed repeatedly with complete DMEM to remove the cellular debris, and the medium was changed to a low serum medium containing 0.05% FBS. The scratch-treated cells were subsequently cultured for an additional indicated time and imaged at 0 h, 12 h, 24 h and 48 h. Quantification of wound closure was accomplished by measuring the distance between the phase contrast images’ anterior edges of the contralateral surfaces using ImageJ software. As for peptide (CY12-RP2) function experiments, images of phase contrast for A375 GFP and A875 GFP cells were captured at 0 h before peptide administration. The cells were then treated with CY12-RP2 (0 μM, 5 μM, 25 μM) for 24 h or 48 h, and then images were acquired again. Handling of the experimental results were carried out as previously described.
(§2) To confirm whether PDPN could affect migration and invasion of melanoma cells in wnt/β-catenin signaling pathway-dependent manner, A375 cells with PDPN knockdown were treated with a Wnt/β-catenin signaling pathway agonist (SKL2001) and PDPN overexpression A875 cells were treated with an inhibitor (IWR1). […]

Experiment [2] deals with A875 PDPN overexpression cells. Briefly: Transwell, PDPN-overexpressing A875 cells. The conditions noted are these: A875 with PDPN overexpression. The class given is cell-based. On the procedure:
(§3) For invasion assay, matrigel (Corning, New York, USA) was coated on the upper surface of the upper chamber. The upper chamber was filled with DMEM medium containing 2% FBS, while the lower chamber contained a medium supplemented with 20% FBS. In brief, melanoma cells (A375 GFP, A875 GFP, A375 PDPN^−/−, and A875 PDPN^+/+ cells) were seeded in the upper chamber of the transwell plate (Corning, New York, USA) at about 5 × 10^4 cells/well with the medium as described above. For peptide functionality experiments, A375 and A875 cells were seeded in the upper chamber of the transwell plate at a density of 5 × 10^4 cells/well with various peptide concentrations (0 μM, 5 μM, 25 μM). Transwell inserts were fixed using 4% paraformaldehyde after 48 h cell invasion, and crystalline violet was used for staining. The quantities of invading cells were quantified using ImageJ software (NIH).
as §2

Experiment [3] has as its system EMT in A875 PDPN overexpression cells. Briefly: Western blot EMT proteins, PDPN-overexpressing A875 cells. The class given is cell-based. On the procedure:
(§4) Melanoma cells were cultured in a 60 mm dish with a complete medium and various peptide concentrations (0 μM, 5 μM, 25 μM). Protein was extracted after cells were cultured or treated for 48 h using protein lysis buffer, separated using a 10% or 15% Bis–Tris PAGE gel (Epizyme Biomedical Technology, Shanghai, China), and transferred onto a PVDF membrane (Thermo Fisher Scientific) according to standard techniques. The Western blots were imaged using Bio-rad Chemidoc MP and quantified using ImageJ software (NIH).
(§5) To confirm whether PDPN could affect migration and invasion of melanoma cells in wnt/β-catenin signaling pathway-dependent manner, A375 cells with PDPN knockdown were treated with a Wnt/β-catenin signaling pathway agonist (SKL2001) and PDPN overexpression A875 cells were treated with an inhibitor (IWR1). […] Furthermore, the levels of EMT positively correlated proteins, including N-cadherin, vimentin and snail were all suppressed, while E-cadherin was increased in A375 cells transfected with LV-shPDPN, and these phenomena were reversed following treatment with SKL2001 (Fig. S2E). In contrast, in the A875 cells, the activation of EMT by PDPN overexpression was blocked by IWR1 (Fig. S2E).
(In western blotting, separated proteins are transferred to a membrane and probed.)

Experiment [4] has as its system Wnt/β-catenin signaling pathway. Briefly: Western blot, EMT and Wnt/β-catenin pathway, melanoma cells. The conditions noted are these: combined with CY12-RP2; SKL2001 50 μM; Western blot. The class given is cell-based. On the procedure:
as §4
Fig. S4: The inhibition of cells metastasis and invasion by CY12-RP2 can be […]
(A, B) The inhibition of CY12-RP2 on the migration capacity of melanoma cell lines was reversed by SKL2001 (A). Statistical analysis was performed to determine the migrated distance (B). The power field scale bar, 100 μm. (C, D) Effect of CY12-RP2 on the invasive ability of melanoma cell lines were reversed by SKL2001 (C). […]
(§6) (A) TUNEL analysis of apoptosis was conducted on orthotopic xenografts tumor sections using fluorescence staining. […] (B) Fluorescence staining of Ki67 was carried out on orthotopic xenograft tumor sections.
(§7) The power field scale bar, 100 μm. (C) Serum His-CY12-RP2 levels of the orthotopic xenografts mice treated by various dosage of CY12-RP2 were measured by His-ELISA kit. […]
(§8) kit. (E) Serum ALT, AST, TG, and γ-GT levels of the orthotopic xenografts model were measured by ELISA. […]

Experiment [5] concerns melanoma cells. As to the kind of experiment: Wound healing with SKL2001, melanoma cell lines. The note with it: combined with CY12-RP2. The class given is cell-based. On the procedure:
as §1, with “The cells were then treated with CY12-RP2 (0 μM, 5 μM, 25 μM) for 24 h or 48 h, and then images were acquired again. Handling of the experimental results were carried out as previously described.” left out
as §6, §7, §8

Experiment [6] relates to melanoma cells. As to the kind of experiment: Transwell invasion with SKL2001, melanoma cell lines. The class given is cell-based. The conditions noted are these: combined with CY12-RP2. On the procedure: as §3, with “(NIH). […]” for “(NIH).”
as §6, §7, §8

In experiment [7] the test system is A375 PDPN knockdown cells. As to the kind of experiment: Wound healing, PDPN-knockdown A375 cells. The conditions noted are these: A375 with PDPN knockdown. The class given is cell-based. On the procedure: as §1, §2
In experiment [8] the test system is A375 PDPN knockdown cells. Briefly: Transwell, PDPN-knockdown A375 cells. The class given is cell-based. The conditions noted are these: A375 with PDPN knockdown. On the procedure:
as §3, §2

Experiment [9] deals with EMT proteins in A375 LV-shPDPN cells. As to the kind of experiment: Western blot EMT proteins, PDPN-knockdown A375 cells. The class given is cell-based. On the procedure:
as §4, §5

The subject of another experiment is melanoma. The conditions noted are these: in vitro and in vivo; cited from earlier work. An excerpt: Therapeutic peptides are a novel and promising type of anti-cancer drug, due to several important advantages over proteins or antibodies: they are molecularly small, easy to synthesize, and capable of penetrating cell membranes; they also have high biological activity, affinity, chemical diversity, and specificity. Phage display technology is a high-throughput screening technique that greatly amplifies the application of directional evolution techniques for antibody and peptide modification screening, and first described in 1985 by Smith. Phage display inserts th ...

Take `O=C(Nc1cccc2cccnc12)c1ccc(N2C(=O)[C@@H]3[C@H](C2=O)[C@@H]2C=C[C@H]3C2)cc1` [IWR1]: in experiment [1], the “promotion of migration by PDPN overexpression” value is reported as “inhibited”. The “increase of invasion mediated by PDPN overexpression” value in experiment [2] is on record as “abrogated”. The “activation of EMT by PDPN overexpression” value in [3] is on record as “blocked”.

Regarding `O=C(NCCCn1ccnc1)c1cc(-c2ccco2)on1` [SKL2001], the “effect of SKL2001 on CY12-RP2 inhibition of EMT and Wnt/β-catenin signaling” value in experiment [4] is “significantly reversed”. Further, in the experiment with melanoma cells [5], the “effect of SKL2001 on CY12-RP2 inhibition of migration” value is reported as “significantly reversed”. Also, in the experiment with melanoma cells [6], the “effect of SKL2001 on CY12-RP2 inhibition of invasion” value is on record as “significantly reversed”. In [7], the “inhibition of migration by PDPN knockdown” value is “abolished”. Also, in experiment [8], the “decrease of invasion mediated by PDPN knockdown” value is “abrogated”. Besides, the “changes of N-cadherin, vimentin, snail and E-cadherin by LV-shPDPN” value in experiment [9] is recorded as “reversed”.

Take “[-CSSRTMHHC-] [peptide screened by C7C phage display library]”: the “melanoma growth and invasion” value with melanoma is “suppress melanoma growth and invasion both in vitro and in vivo”.
